The results in this text go back to ChEMBL document CHEMBL4651402, “Screening of ~5500 FDA-approved drugs and clinical candidates for anti-SARS-CoV-2 activity” (2021).

For the test, the system named is SARS-CoV-2. Briefly: microbe, parasite or virus in culture. Conditions: Severe acute respiratory syndrome coronavirus 2, Vero C1008, 48 h.

`CC(C)NCC(O)c1ccc2ccccc2c1` (stereo not drawn) [PRONETALOL] gave an IC50 of more than 20 µM. Besides, the IC50 (read-out: pIC50 (converted)) is more than 20 µM.
Molecule `N[C@@H](CCC(=O)N[C@@H](CS)C(=O)NCC(=O)O)C(=O)O` [GLUTATHIONE] came in with an IC50 of more than 20 µM. The IC50 (read-out: pIC50 (converted)) is more than 20 µM.
With `OCCN(CCO)c1nc(-c2ccccc2)c(-c2ccccc2)o1` [DITAZOLE], the IC50 is more than 20 µM. Also, the IC50 (read-out: pIC50 (converted)) is more than 20 µM.
In turn, `Nc1ccc(S(N)(=O)=O)cc1` [SULFANILAMIDE] gave an IC50 of more than 20 µM. For the setting “read-out: pIC50 (converted)”, the IC50 is more than 20 µM.
Regarding `O=C(CNC(=O)c1cccc(C(F)(F)F)c1)NC1CN([C@H]2CC[C@@](O)(c3cncs3)CC2)C1` [JNJ-41443532], the IC50 was more than 20 µM. Where the note is “read-out: pIC50 (converted)”, the IC50 is more than 20 µM.
`Cc1ccc(-n2nc(C(C)(C)C)cc2NC(=O)Nc2ccc(OCCN3CCOCC3)c3ccccc23)cc1` [DORAMAPIMOD] returned an IC50 of more than 20 µM. The IC50 (read-out: pIC50 (converted)) was more than 20 µM.
`Cc1cc(Nc2ncnc3ccc(-c4ccc(CNCCS(C)(=O)=O)o4)cc23)ccc1Oc1ccn2ncnc2c1` yielded an IC50 of more than 20 µM. In addition, the IC50 (read-out: pIC50 (converted)) is more than 20 µM.
`c1ccc(CN(CC2=NCCN2)c2ccccc2)cc1` [ANTAZOLINE]: the IC50 was more than 20 µM. For the same molecule, where the note is “read-out: pIC50 (converted)”, the IC50 was more than 20 µM.
As to `Oc1ccccc1` [PHENOL], the IC50 was more than 20 µM. For the same molecule, the IC50 (read-out: pIC50 (converted)) is more than 20 µM.
With `CC(=O)O[C@]1(C(C)=O)CC[C@H]2[C@@H]3C=C(Cl)C4=CC(=O)CC[C@]4(C)[C@H]3CC[C@@]21C` [CHLORMADINONE ACETATE], the IC50 is more than 20 µM. The IC50 (read-out: pIC50 (converted)) is more than 20 µM.
`O=C(O)Cc1sc2nc3ccccc3n2c1-c1ccc(Cl)cc1` [TILOMISOLE] yielded an IC50 of more than 20 µM. Further, the IC50 (read-out: pIC50 (converted)) was more than 20 µM.
`CC(=O)NC[C@H]1CN(c2ccc(N3CCOCC3)c(F)c2)C(=O)O1` [LINEZOLID] registered an IC50 of more than 20 µM. Also, where the note is “read-out: pIC50 (converted)”, the IC50 is more than 20 µM.
In turn, `Cc1cc(C(C)(C)C)cc(C)c1CC1=NCCN1` [XYLOMETAZOLINE] had an IC50 of more than 20 µM. Also, the IC50 (read-out: pIC50 (converted)) was more than 20 µM.
Molecule `Nc1nc(O)c2c(n1)NCC(CNc1ccc(C(=O)N[C@@H](CCC(=O)O)C(=O)O)cc1)N2` (stereo partly drawn) had an IC50 of more than 20 µM. For the same molecule, the IC50 (read-out: pIC50 (converted)) is more than 20 µM.
On to `CC12C=CC(=O)C=C1CCC1C2C(O)CC2(C)C1CC[C@]2(O)C(=O)COC(=O)CCC(=O)O` (stereo partly drawn), for which the IC50 is more than 20 µM. The IC50 (read-out: pIC50 (converted)) is more than 20 µM.
In turn, `Cc1ncc(COP(=O)(O)O)c(C=O)c1O` [PYRIDOXAL PHOSPHATE ANHYDROUS] yielded an IC50 of more than 20 µM. Besides, the IC50 (read-out: pIC50 (converted)) was more than 20 µM.
In the case of `CC(C)=CCC1C(=O)N(c2ccccc2)N(c2ccccc2)C1=O` [FEPRAZONE], the IC50 is more than 20 µM. In addition, the IC50 (read-out: pIC50 (converted)) is more than 20 µM.
As for `NC(N)=NOCC[C@H](N)C(=O)O` [CANAVANINE], the IC50 is more than 20 µM. Also, the IC50 (read-out: pIC50 (converted)) is more than 20 µM.
`C[N+](C)(C)CCOC(N)=O` [CARBAMOYLCHOLINE]: the IC50 is more than 20 µM. Also, where the note is “read-out: pIC50 (converted)”, the IC50 is more than 20 µM.
In turn, `CC1(C)C(=O)Nc2ccc(C3=NNC(=O)CC3)cc21` [INDOLIDAN] yielded an IC50 of more than 20 µM. The IC50 (read-out: pIC50 (converted)) is more than 20 µM.
The molecule `CCC(O)C(CC(C)N(C)C)(c1ccccc1)c1ccccc1` (stereo not drawn) [DIMEPHEPTANOL] came in with an IC50 of more than 20 µM. Further, the IC50 (read-out: pIC50 (converted)) was more than 20 µM.
In turn, `CCCC(=O)OCOC(=O)C(C)(C)C` [AN-9] returned an IC50 of more than 20 µM. The IC50 (read-out: pIC50 (converted)) is more than 20 µM.
Molecule `C[C@H](N)Cc1cccc(O)c1` [GEPEFRINE] gave an IC50 of more than 20 µM. In addition, for the setting “read-out: pIC50 (converted)”, the IC50 was more than 20 µM.
`C[C@]12N[C@H](Cc3ccccc31)c1ccccc12` [DIZOCILPINE] had an IC50 of more than 20 µM. In addition, the IC50 (read-out: pIC50 (converted)) is more than 20 µM.
`CC(C)C[C@H](N)C(=O)O` [LEUCINE]: the IC50 was more than 20 µM. Also, the IC50 (read-out: pIC50 (converted)) was more than 20 µM.
In the case of `Cc1nnc(C(C)C)n1[C@H]1C[C@H]2CC[C@@H](C1)N2CC[C@H](NC(=O)C1CCC(F)(F)CC1)c1ccccc1` [MARAVIROC], the IC50 was more than 20 µM. The IC50 (read-out: pIC50 (converted)) is more than 20 µM.
`N#Cc1cc2c(OCC(O)CN3CCN(C(c4ccccc4)c4ccccc4)CC3)cccc2[nH]1` (stereo not drawn) returned an IC50 of more than 20 µM. Besides, the IC50 (read-out: pIC50 (converted)) is more than 20 µM.
As for `CC(CCC(=O)O)C1CCC2C3C(=O)CC4CC(=O)CCC4(C)C3CC(=O)C12C` (stereo not drawn), the IC50 was more than 20 µM. Moreover, the IC50 (read-out: pIC50 (converted)) is more than 20 µM.
Regarding `NCCCC(N)C(=O)O` (stereo not drawn) [ORNITHINE aKETOGLUTARATE], the IC50 is more than 10 µM. Also, the IC50 (read-out: pIC50 (converted)) is more than 10 µM.
As for `CCOc1ncc(S(=O)(=O)N2CCN(CC)CC2)cc1-c1nc2c(CC)n(CCOC)nc2c(=O)[nH]1`, the IC50 was more than 20 µM. Further, the IC50 (read-out: pIC50 (converted)) was more than 20 µM.
`CC(=O)Oc1ccc(C(=C2CCCCC2)c2ccc(OC(C)=O)cc2)cc1` [CYCLOFENIL] yielded an IC50 of more than 20 µM. In addition, the IC50 (read-out: pIC50 (converted)) was more than 20 µM.
Turning to `O=C(O)c1cc(NC(=O)[C@H](Cc2ccccc2F)NC(=O)c2cc3[nH]cnc3cc2C(=O)NCC2CCCCCC2)cc(C(=O)O)c1`, the IC50 was more than 20 µM. Where the note is “read-out: pIC50 (converted)”, the IC50 is more than 20 µM.
In the case of `CN[C@@H]1[C@H](O)[C@H](NC)[C@H]2O[C@@]3(O)C(=O)C[C@@H](C)O[C@H]3O[C@@H]2[C@H]1O` [SPECTINOMYCIN], the IC50 was more than 20 µM. The IC50 (read-out: pIC50 (converted)) was more than 20 µM.
Molecule `CC1(c2ccccc2)Cc2cc(OCC(=O)O)c(Cl)c(Cl)c2C1=O` (stereo not drawn) [INDACRINONE] had an IC50 of more than 20 µM. For the same molecule, under “read-out: pIC50 (converted)”, the IC50 was more than 20 µM.
`Cc1onc(-c2c(Cl)cccc2Cl)c1C(=O)N[C@@H]1C(=O)N2[C@@H]1SC(C)(C)[C@@H]2C(=O)O` [DICLOXACILLIN] showed an IC50 of more than 20 µM. Besides, the IC50 (read-out: pIC50 (converted)) was more than 20 µM.
`COC1(C)CCC2OC2(C)CCC2C1CC2(C)C` (stereo not drawn) [2-METHOXY-5 (6)EPOXY-TETRAHYDROCARYOPHYLLENE] gave an IC50 of more than 20 µM. For the same molecule, the IC50 (read-out: pIC50 (converted)) is more than 20 µM.
In the case of `CCC[C@H](N[C@@H](C)C(=O)N1C2CCCCC2C[C@H]1C(=O)O)C(=O)OCC` (stereo partly drawn), the IC50 was more than 20 µM. The IC50 (read-out: pIC50 (converted)) is more than 20 µM.
As to `O=c1[nH]c(=O)n([C@H]2C[C@H](O)[C@@H](CO)O2)cc1Br` [BROXURIDINE], the IC50 is more than 50.1 µM. The IC50 (read-out: pIC50 (converted)) is more than 50.1 µM.
Take `Nc1ccc(F)cc1NC(=O)c1ccc(CNC(=O)/C=C/c2cccnc2)cc1`: the IC50 was more than 20 µM. For the same molecule, the IC50 (read-out: pIC50 (converted)) is more than 20 µM.
`CC12CCC3C(CCC4CC(=O)CCC43C)C1CCC2=O` (stereo not drawn) gave an IC50 of more than 20 µM. Moreover, for the setting “read-out: pIC50 (converted)”, the IC50 was more than 20 µM.
In the case of `CC[N@@+]1(C)[C@@H]2CC[C@H]1C[C@@H](OC(=O)[C@]1(c3ccccc3)CC[C@H](C(=O)O[C@H]3C[C@H]4CC[C@@H](C3)[N@+]4(C)CC)c3ccccc31)C2`, the IC50 is more than 20 µM. Moreover, the IC50 (read-out: pIC50 (converted)) was more than 20 µM.
In turn, `C[C@]12CCC(=NOCCN)C[C@@H]1C(=O)C[C@@H]1[C@@H]2CC[C@]2(C)C(=O)CC[C@@H]12` [ISTAROXIME] came in with an IC50 of more than 20 µM. Further, for the setting “read-out: pIC50 (converted)”, the IC50 is more than 20 µM.
In the case of `CCO[C@@H]1OC(=O)C[C@@H]1NC(=O)[C@@H]1CCCN1C(=O)[C@@H](NC(=O)c1ccc(N)c(Cl)c1)C(C)(C)C` [BELNACASAN], the IC50 was more than 20 µM. Moreover, the IC50 (read-out: pIC50 (converted)) is more than 20 µM.
On to `Cc1ccc(S(=O)(=O)NC(=O)NC2C3CCC(C)(C2O)C3(C)C)cc1` (stereo not drawn), for which the IC50 was more than 20 µM. Further, where the note is “read-out: pIC50 (converted)”, the IC50 was more than 20 µM.
